The values below are quoted from earlier work in patent US12036321B2, “Compositions and methods for treating or preventing multiple organ dysfunction syndrome” (VIVACELLE BIO, INC., priority 2020, dated 2024).

Read-outs that look alike come from different tables or passages of the source.

Data set [1] concerns Nitric oxide synthase (NOS). To be noted: nitric oxide synthase inhibitor, Lopez et al., Crit. Care Med. 2004.
The conditions of data set [2]: Battion et al., J Amer Oil Chem Soc 1968.
For data set [3], the system named is human neutrophils. Conditions: Simpkins et al., Life Sci 1985.

Take `CN=C(N)NCCC[C@H](N)C(=O)O.Cl` [546C88]: the “outcome of trial in patients with septic shock” value is “increased mortality and multiple organ failure” in data set [1]; “increased mortality” in data set [1] (listed as 54C88).
Consider `O=O` [Oxygen], for which the “solubility of oxygen in lipid relative to water” value in data set [2] is 4.41 times.
For `C=CCN1CC[C@]23c4c5ccc(O)c4O[C@H]2C(=O)CC[C@]3(O)[C@H]1C5` [(+) naloxone], in data set [3], the “concentration range that produces anti-inflammatory effect” value is listed as 10^−5-10^−4 M.
